We go through 7 compounds from patent publication US20210139497A1, “THIENOCYCLIC COMPOUND AND SYNTHESIS METHOD THEREFOR AND APPLICATION THEREOF” (SHANGHAI YUYAO BIOTECH LTD., priority 2017, published 2021).

pIC50: −log10 of the molar value.

Series [1] is described as follows: Cytotoxicity evaluation (CCK8), PANC02. As to conditions: mouse, PANC02 pancreatic cancer cells.
Description: (§5) Cells with a density of 2000-8000 cells per 100 μL medium were seeded in 96-well plates (Falcon, CA) and incubated for 24 hours, then treated with drugs having different concentration gradient (at least 4 replicates per concentration) and incubated at 37° C. in 5% CO2 incubator for 72 hours. Then cell viability was detected by CCK8 method. That is to say, add 10 μL CCK8 to each well and incubate for 0.33-2 h, and the OD values are read by microplate reader at 450 nm. The inhibition rate on cell survival of compounds with each concentration were calculated.
(§6) Inhibition rate on cell survival=(OD value of groups with each concentration/OD
(§7) value of control group)×100%±standard deviation.
(§8) The IC50 of drugs were calculated using GraphPad Prism 5.0.
The target of series [2] is T1, mouse PGE2 receptor EP4 subtype (mEP4) (Mus musculus, UniProt P32240).
T1 construct: expressed in transfected cells; host or cells: CHO-K1-Gα16
Put plainly: Calcium flux of mouse prostaglandin E2 receptor EP4 subtype. The class given is cell-based. The settings on record: CHO-K1-Gα16 cells overexpressing mEP4, calcium flux activated by prostaglandin E2; read-out: mEP4 Ca^2+ IC50. On the procedure: (§1) CHO-K1-Gα16 cells at the logarithmic growth phase were transfected with EP4 overexpressing vector by Lipofectamine 2000 and then seeded in a 96-well plate (Falcon, CA) and cultured at 20000 cells per 100 μL culture medium overnight. On the second day, every single well were added with 100 μL calcium 5 detection reagents (Molecular Devices) and incubated in incubator at 37° C., 5% CO2 for 45 minutes. The compounds were diluted in HBSS detection buffer, then added to 96-well plates. After incubated for 20 min at room temperature away from light, certain concentration of prostaglandin E2 was used to activate calcium flux of cells for detection (Flexstation 3, MD, CA).
(§2) Calculate the IC50 of the compounds of the invention in inhibiting the calcium flux of human PGE2 receptor EP4 subtype (hEP4) and mouse PGE2 receptor EP4 subtype (mEP4) (i.e. the concentration of drugs at which the intracellular Ca^2+ flux is inhibited by half after overexpressing hEP4 and mEP4 receptors in CHO-K1-Gα16 cells). The IC50 of the drugs were calculated using GraphPad Prism 5.
For orientation: Calcium flux is commonly read through the fluorescence of an indicator in the cells.

Series [3] is described as follows: Cytotoxicity evaluation (CCK8), EMT-6. As to conditions: mouse, EMT-6 breast cancer cells.
Description: as §5, §6, §7, §8
Series [4] is described as follows: Cytotoxicity evaluation (CCK8), CT26. The settings on record: mouse, CT26 intestinal cancer cells.
Description: as §5, §6, §7, §8
Series [5] in a line: Cytotoxicity evaluation (CCK8), MOSJ. The settings on record: mouse, MOSJ osteosarcoma cells.
Description: as §5, §6, §7, §8
The target in series [6] is T2, human PGE2 receptor EP4 subtype (hEP4) (Homo sapiens, UniProt P35408).
T2 construct: expressed in transfected cells; host or cells: CHO-K1-Gα16
As to the kind of experiment: Calcium flux of human prostaglandin E2 receptor EP4 subtype. The class given is cell-based. The settings on record: CHO-K1-Gα16 cells overexpressing hEP4, calcium flux activated by prostaglandin E2; read-out: hEP4 Ca^2+ IC50. As for the experimental part:
as §1, §2

Series [7] is described as follows: Cytotoxicity evaluation (CCK8), 293. As to conditions: human.
Series [8] can be described thus: Cytotoxicity evaluation (CCK8), LLC. As to conditions: mouse, LLC lung cancer cells.
Description: as §5, §6, §7, §8
Series [9] has as its system mouse colon cancer cells CT26. Put plainly: CT26 subcutaneous tumor-bearing model, Balb/c mice. In kind it is in vivo. The settings on record: female Balb/c mice, 75 mg/kg/day, 14 days, vs negative control, FIG. 3. On the procedure:
2×10^6 mouse colon cancer cells CT26 were subcutaneously injected into right side of each mouse's back (female Balb/c mouse, 6-8 weeks). The length and width of subcutaneous tumors in the back of mice were measured using vernier calipers, and tumor volume (mm^3)=(length(mm)×width(mm)×width(mm)×n)/6 was calculated. […] The volume of subcutaneous tumors on the back of mice was measured and counted twice a week. Continuous administrated for a period of 14 days and the changes of tumor volumes were recorded.
Mouse colon cancer cells MC38, pancreatic cancer cells Pan02, breast cancer cells 4T1, prostate cancer cells RM-1 and colon cancer cells CT26 were cultivated to required amount. Then, cells at a cell density of 5×10^5-2×10^6 were subcutaneously injected into right side of the back of selected female C57BL/6 mice aging 6-8 weeks (MC38, Pan02), male C57BL/6 mice aging 6-8 weeks (RM-1), female Balb/c mice aging 6-8 weeks (4T1, CT26) and female Balb/c nude mice aging 6-8 weeks (CT26). The length and width of subcutaneous tumors in the backs of mice were measured using vernier calipers, and tumor volume(mm^3)=(length(mm)×width(mm)×width(mm)×n)/6 was calculated. […] The volume of subcutaneous tumors on the back of mice was measured and counted 2-4 times a week. Continuous administrated for 12-22 days and the changes of tumor volumes were recorded.

Series [10] has as its target T3, human prostaglandin E2 receptor EP2 subtype (Homo sapiens, UniProt P43116).
T3 construct: expressed in transfected cells; host or cells: CHO-K1-Gα16
Put plainly: Calcium flux of human prostaglandin E2 receptor EP2 subtype. As to conditions: CHO-K1-Gα16 cells overexpressing human EP2, activated by prostaglandin E2; read-out: hEP2 Ca^2+ IC50. The class given is cell-based. On the procedure:
(§3) CHO-K1-Gα16 cells at the logarithmic growth phase were transfected with human prostaglandin E2 Receptor subtypes EP1, EP2 or EP3 overexpressing vector by Lipofectamine 2000, then seeded in a 96-well plate (Falcon, CA) at a density of 20000 cells per 100 μL culture medium for overnight culture. On the second day, every single well were added with 100 μL calcium 5 detection reagents (Molecular Devices) and incubated in incubator at 37° C., 5% CO2 for 45 minutes. The compounds were diluted with HBSS detection buffer, then were added to 96-well plates. After 20 min incubation at room temperature in the dark, prostaglandin E2 at certain concentration was used to activate calcium flux of cells for detection (Flexstation 3, MD, CA).
(§4) Calculate the IC50 of the compounds of the invention in inhibiting the calcium flux of human EP1, EP2, and EP3 receptor (i.e. the concentration of drugs at which the intracellular Ca^2+ flux being inhibited by half after overexpressing human EP1, EP2, and EP3 receptors in CHO-K1-Gα16 cells). The IC50 of the drugs were calculated using GraphPad Prism 5.

The target of series [11] is T4, human prostaglandin E2 receptor EP1 subtype (Homo sapiens, UniProt P34995).
T4 construct: expressed in transfected cells; host or cells: CHO-K1-Gα16
T4 sequence (P34995 1-402): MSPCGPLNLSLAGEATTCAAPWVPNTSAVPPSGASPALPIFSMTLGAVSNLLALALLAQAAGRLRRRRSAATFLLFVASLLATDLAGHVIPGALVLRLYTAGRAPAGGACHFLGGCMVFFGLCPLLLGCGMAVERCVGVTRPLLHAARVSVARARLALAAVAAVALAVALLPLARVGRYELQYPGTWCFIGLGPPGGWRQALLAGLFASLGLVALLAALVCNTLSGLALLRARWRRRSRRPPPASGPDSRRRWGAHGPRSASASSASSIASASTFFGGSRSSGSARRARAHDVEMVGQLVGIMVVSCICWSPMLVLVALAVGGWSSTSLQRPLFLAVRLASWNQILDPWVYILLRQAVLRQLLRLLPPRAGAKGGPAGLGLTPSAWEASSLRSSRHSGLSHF
Put plainly: Calcium flux of human prostaglandin E2 receptor EP1 subtype. In kind it is cell-based. As to conditions: CHO-K1-Gα16 cells overexpressing human EP1, activated by prostaglandin E2; read-out: hEP1 Ca^2+ IC50. As for the experimental part:
as §3, §4

The target in series [12] is T5, human prostaglandin E2 receptor EP3 subtype (Homo sapiens, UniProt P43115).
T5 construct: expressed in transfected cells; host or cells: CHO-K1-Gα16
T5 sequence (P43115 1-390): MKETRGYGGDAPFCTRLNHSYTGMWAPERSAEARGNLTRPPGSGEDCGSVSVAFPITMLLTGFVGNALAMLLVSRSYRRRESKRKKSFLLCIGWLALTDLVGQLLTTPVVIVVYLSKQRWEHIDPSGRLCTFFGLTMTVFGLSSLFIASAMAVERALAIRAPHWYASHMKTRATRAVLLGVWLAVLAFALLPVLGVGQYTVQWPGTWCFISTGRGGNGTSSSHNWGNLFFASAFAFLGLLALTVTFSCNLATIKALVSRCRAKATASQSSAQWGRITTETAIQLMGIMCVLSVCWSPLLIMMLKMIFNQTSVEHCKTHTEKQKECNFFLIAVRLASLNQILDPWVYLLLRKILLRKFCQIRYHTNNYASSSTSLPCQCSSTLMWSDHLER
As to the kind of experiment: Calcium flux of human prostaglandin E2 receptor EP3 subtype. In kind it is cell-based. The settings on record: CHO-K1-Gα16 cells overexpressing human EP3, activated by prostaglandin E2; read-out: hEP3 Ca^2+ IC50. As for the experimental part: as §3, §4

T2 sequence (P35408 whole entry): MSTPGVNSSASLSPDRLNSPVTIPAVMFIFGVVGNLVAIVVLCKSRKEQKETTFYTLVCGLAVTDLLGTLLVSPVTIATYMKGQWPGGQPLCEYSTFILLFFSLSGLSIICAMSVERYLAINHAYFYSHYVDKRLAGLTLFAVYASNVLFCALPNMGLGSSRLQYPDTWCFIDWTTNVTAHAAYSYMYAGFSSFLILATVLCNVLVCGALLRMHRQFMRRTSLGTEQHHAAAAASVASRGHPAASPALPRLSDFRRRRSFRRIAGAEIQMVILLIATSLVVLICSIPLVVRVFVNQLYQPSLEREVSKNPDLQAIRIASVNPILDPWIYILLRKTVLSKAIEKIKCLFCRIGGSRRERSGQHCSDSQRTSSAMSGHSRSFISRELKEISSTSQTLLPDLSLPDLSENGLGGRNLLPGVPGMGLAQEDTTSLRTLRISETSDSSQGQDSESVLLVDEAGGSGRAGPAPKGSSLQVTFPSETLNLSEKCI
T1 sequence (P32240 whole entry): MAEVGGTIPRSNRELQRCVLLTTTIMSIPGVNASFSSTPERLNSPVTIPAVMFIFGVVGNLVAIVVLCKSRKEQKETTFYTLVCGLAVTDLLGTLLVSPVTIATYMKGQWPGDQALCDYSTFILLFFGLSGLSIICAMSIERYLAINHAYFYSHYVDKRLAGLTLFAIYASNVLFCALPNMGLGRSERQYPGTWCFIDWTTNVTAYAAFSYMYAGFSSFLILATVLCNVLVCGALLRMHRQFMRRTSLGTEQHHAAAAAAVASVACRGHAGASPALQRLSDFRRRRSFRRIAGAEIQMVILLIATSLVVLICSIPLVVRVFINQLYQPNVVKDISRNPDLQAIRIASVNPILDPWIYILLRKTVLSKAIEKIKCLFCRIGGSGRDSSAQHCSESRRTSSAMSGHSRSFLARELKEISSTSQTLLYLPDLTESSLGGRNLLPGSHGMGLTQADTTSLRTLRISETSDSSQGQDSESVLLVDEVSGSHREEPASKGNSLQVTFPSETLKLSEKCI
T3 sequence (P43116 whole entry): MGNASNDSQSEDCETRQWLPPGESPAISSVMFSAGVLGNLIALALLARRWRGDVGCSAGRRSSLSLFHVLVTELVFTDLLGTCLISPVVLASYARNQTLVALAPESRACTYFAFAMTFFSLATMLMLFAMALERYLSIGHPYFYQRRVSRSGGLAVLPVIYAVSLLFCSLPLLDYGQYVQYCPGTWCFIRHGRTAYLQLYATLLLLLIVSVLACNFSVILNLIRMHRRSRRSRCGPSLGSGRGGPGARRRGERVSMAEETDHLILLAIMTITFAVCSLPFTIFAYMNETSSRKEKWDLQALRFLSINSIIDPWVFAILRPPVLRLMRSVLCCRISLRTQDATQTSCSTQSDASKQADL

What is called IC50 is the concentration that inhibits the measured activity by half. Broadly, the pIC50 is the negative decadic logarithm of the IC50, by convention in mol/L. For `C[C@H](NC(=O)c1c(CCc2ccc(F)cc2)sc2c1CCOC2)c1ccc(C(=O)O)cc1` [YJ106, (S)-4-(1-(2-(4-fluorophenethyl)-4,7-dihydro-5H-thieno[2,3-c]pyran-3-carboxamido)ethyl)benzoic Acid], the IC50 at 72 h in series [1], in [3], in series [4], in [5], in [7] and in series [8] was over 100 µM throughout. In addition, the pIC50 in series [2] and in [6] was over 7.00 in each case. In addition, the “Inhibitory effect on growth of subcutaneous CT26 colon cancer” value (from here on “Inhibitory effect on growth”) in [9] is recorded as “able to suppress the growth”.
As for `C[C@H](NC(=O)c1c(CCc2ccc(F)cc2)sc2c1CC(C)(C)OC2)c1ccc(C(=O)O)cc1` [YJ110, (S)-4-(1-(2-(4-fluorophenethyl)-5,5-dimethyl-5,7-dihydro-4H-thieno[2,3-c]pyran-3-carboxamido)ethyl)benzoic Acid], the IC50 at 72 h in series [1], in [3], in series [4], in series [5], in [7] and in [8] was over 100 µM in each case. Moreover, the pIC50 is over 7.00 in series [2]; under 5.00 in series [10]; over 7.00 in [6]; under 5.00 in series [11]; under 5.00 in series [12].
As to `C[C@H](NC(=O)c1c(CCc2cccc(C(F)(F)F)c2)sc2c1CCOC2)c1ccc(C(=O)O)cc1` [YJ112, (S)-4-(1-(2-(3-(trifluoromethyl)phenethyl)-5,7-dihydro-4H-thieno[2,3-c]pyran-3-carboxamido)ethyl)benzoic Acid], the half-maximal inhibitory concentration (IC50) at 72 h in series [1], in series [3], in series [4], in series [5], in series [7] and in series [8] was over 100 µM throughout. Further, the pIC50 in series [2] was 6.00 to 7.00; in series [10], under 5.00; in series [6], over 7.00; in series [11], under 5.00; in [12], under 5.00.
As to `C[C@H](NC(=O)c1c(CCc2cccc(F)c2)sc2c1CCOC2)c1ccc(C(=O)O)cc1` [YJ113, (S)-4-(1-(2-(3-fluorophenethyl)-4,7-dihydro-5H-thieno[2,3-c]pyran-3-carboxamido)ethyl)benzoic Acid], the 50% inhibitory concentration (IC50) at 72 h in series [1], in series [3], in series [4], in series [5], in series [7] and in series [8] was over 100 µM throughout. Also, the pIC50 in series [2] is 6.00 to 7.00; in series [10] it was under 5.00; in series [6], over 7.00; in [11], under 5.00; in series [12], under 5.00.
`C[C@H](NC(=O)c1c(Cc2ccc(C(F)(F)F)cc2)sc2c1CCOC2)c1ccc(C(=O)O)cc1` [YJ115, (S)-4-(1-(2-(4-(trifluoromethyl)benzyl)-5,7-dihydro-4H-thieno[2,3-c]pyran-3-carboxamido)ethyl)benzoic Acid]: the concentration for half-maximal inhibition (IC50) at 72 h in series [1], in series [3], in series [4], in series [5], in series [7] and in series [8] was over 100 µM throughout. Moreover, the negative logarithm of the IC50 (pIC50) in series [2] and in series [6] was over 7.00 in each case. Also, the “Inhibitory effect on growth” value in [9] is recorded as “able to suppress the growth”.
Take `O=C(O)c1ccc(CNC(=O)c2c(Cc3ccc(F)cc3)sc3c2CCOC3)cc1` [YJ120, 4-((2-(4-fluorobenzyl)-4,7-dihydro-5H-thieno[2,3-c]pyran-3-carboxamido)methyl)benzoic Acid]: the IC50 at 72 h in series [1], in series [3], in series [4], in series [5], in series [7] and in [8] was over 100 µM each time. The pIC50 in [2] was over 7.00. The “Inhibitory effect on growth” value in [9] is reported as “able to suppress the growth”.
As for `C[C@H](NC(=O)c1c(NCc2ccc(C(F)(F)F)cc2)sc2c1CCOC2)c1ccc(C(=O)O)cc1` [YJ121, (S)-4-(1-(2-((4-(trifluoromethyl)benzyl)amino)-5,7-dihydro-4H-thieno[2,3-c]pyran-3-carboxamido)ethyl)benzoic Acid], the IC50 at 72 h in [1], in series [3], in [4], in [5], in series [7] and in series [8] was 10 to 100 µM in each case. Moreover, the pIC50 in series [2] is over 7.00; in series [10] it was 5.00 to 6.00; in series [6], over 7.00; in series [11], 5.00 to 6.00; in series [12], 5.00 to 6.00.
